These results are taken from ChEMBL document CHEMBL3994598, “Silychristin: Skeletal Alterations and Biological Activities” (J Nat Prod, 2016).

SMILES strings stand for the structures.

The subject of one series is CAL-51. Nature of the series: Cytotoxicity against human CAL51 at 0.0003 to 100 uM after 48 hrs by ATPlite assay. The series is classed as cell-based. The following applies: cal-51, 48 h.
The nature of series [1]: Antioxidant activity assessed as trolox equivalent of ABTS radical scavenging activity at 100 uM incubated for >= 5 mins. It is filed as functional.
The test system of the next series is MDA-MB-231. The series is described as follows: Cytotoxicity against human MDA-MB-231 cells at 0.0003 to 100 uM after 48 hrs by ATPlite assay. The series is classed as cell-based. The note with it: mda-mb-231, 48 h. (Cellular ATP, detected with luciferase, serves as a proxy for viable cell number.)
In another series the test system is PC-3. The series is described as follows: Cytotoxicity against human PC3 cells at 0.0003 to 100 uM after 48 hrs by ATPlite assay. The series is classed as cell-based. The note with it: pc-3, 48 h.
Series [2] in a line: Partition coefficient, logP of the compound in octan-1-ol and phosphate buffer at pH 7.4 at 25 degC after 2 hrs by UV-vis spectrometer. It is filed as physicochemical. The note with it: octan-1-ol/phosphate buffer.
Series [3] can be described thus: Antiradical activity assessed as gallic acid equivalents of Foline-Ciocalteu reagent reducing capacity at 1 mM preincubated for 5 mins followed by Na2CO3 addition measured after 90 mins.
The next series has as its system BJ. Nature of the series: Cytotoxicity against human BJ cells at 0.0003 to 100 uM after 48 hrs by ATPlite assay. The series is classed as cell-based.
In a further series the test system is Liver. The series is described as follows: Antioxidant activity against tert-butyl hydroperoxide-induced lipoperoxidation in rat liver microsomal membranes incubated for 60 mins by TBARS assay. The series is classed as functional, cell membranes, Microsomal Membrane. The note with it: 1 h.
The next series relates to HepG2. The series is described as follows: Cytotoxicity against human HepG2 cells at 0.0003 to 100 uM after 48 hrs by ATPlite assay. The series is classed as cell-based. The note with it: hepg2, 48 h.
For another series, the system named is TERT-RPE1. Nature of the series: Cytotoxicity against human RPE1 cells at 0.0003 to 100 uM after 48 hrs by ATPlite assay. The series is classed as cell-based. The note with it: tert-rpe1, 48 h.
The nature of series [4]: Antioxidant activity assessed as DPPH radical scavenging activity after 30 mins. The series is classed as functional. A general note: DPPH is a stable violet radical that fades when it is reduced.
Another series deals with MCF7. The series is described as follows: Cytotoxicity against human MCF7 cells at 0.0003 to 100 uM after 48 hrs by ATPlite assay. The series is classed as cell-based. The following applies: mcf7, 48 h.
Series [5] in a line: Cytotoxicity against human primary prostate mesenchymal cells at 0.0003 to 100 uM after 48 hrs by ATPlite assay. It is filed as cell-based. The note with it: primary prostate mesenchymal cell.
The next series has as its system K562. The series is described as follows: Cytotoxicity against human K562 cells at 0.0003 to 100 uM after 48 hrs by ATPlite assay. The series is classed as cell-based. The note with it: k562, 48 h.
Another series concerns HL-60. The series is described as follows: Cytotoxicity against human HL60 cells at 0.0003 to 100 uM after 48 hrs by ATPlite assay. It is filed as cell-based. The following applies: hl-60, 48 h.

Regarding `COc1cc(-c2oc3c(O)cc(-c4oc5cc(O)cc(O)c5c(=O)c4O)cc3c2C)ccc1O`, the Activity entry in the series on CAL-51 was “Toxic”; in series [1], 1.43 equiv; with MDA-MB-231 it was “Toxic”; in the series on PC-3, “Toxic”; in series [3], 2.13 equiv; in the series with BJ, “Toxic”. Also, the Activity result (in the series on HepG2; in the series on TERT-RPE1; in the series on MCF7; in [5]; in the series on K562; in the series on HL-60) was “Toxic” each time. In addition, the logD (usually the decadic logarithm of the distribution of all forms, ionised or not, between an organic phase and buffer at a given pH) at 2 h in [2] was -0.24. For the same molecule, the values for the IC50 (with Liver; in series [4]) were 6.43 µM and 3.56 µM, respectively.

With `COc1cc([C@@H]2Oc3c(O)cc([C@@H]4CC(=O)c5c(O)cc(O)cc5O4)cc3[C@H]2CO)ccc1O`, the Activity result was “Toxic” in the series with CAL-51; 0.77 equiv in series [1]; “Toxic” in the series on MDA-MB-231; “Toxic” in the series with PC-3; 1.24 equiv in [3]; “Toxic” in the series with BJ. The Activity result (in the series with HepG2; in the series on TERT-RPE1; in the series with MCF7; in series [5]; in the series on K562; with HL-60) was “Toxic” throughout. This molecule had a log distribution coefficient (logD) at 2 h in series [2] of -0.37. The IC50 (in general, the concentration that inhibits the measured activity by half) with Liver was 12.6 µM; in [4], 43 µM.

Turning to `COc1cc([C@@H]2Oc3c(O)cc(-c4oc5cc(O)cc(O)c5c(=O)c4O)cc3[C@H]2CO)ccc1O`, the Activity entry in the series on CAL-51 is “Toxic”; in series [1], 1.79 equiv; in the series on MDA-MB-231, “Toxic”; in the series with PC-3, “Toxic”; in [3], 3.06 equiv; with BJ it was “Toxic”. The Activity entry (in the series with HepG2; with TERT-RPE1; in the series on MCF7; in series [5]; with K562; in the series on HL-60) was “Toxic” each time. In [2], this molecule yielded a logD at 2 h of -1.01. In addition, the IC50 stood at 5.45 µM in the series on Liver and 4.88 µM in series [4].

On to `COc1cc(-c2oc3c(O)cc([C@H]4Oc5cc(O)cc(O)c5C(=O)[C@@H]4O)cc3c2C)ccc1O`, for which the Activity entry was “Toxic” in the series with CAL-51; 0.99 equiv in series [1]; “Toxic” with MDA-MB-231; “Toxic” with PC-3; 1.74 equiv in [3]; “Toxic” with BJ. Also, the Activity result (in the series with HepG2; with TERT-RPE1; in the series on MCF7; in series [5]; with K562; in the series with HL-60) was “Toxic” each time. Also, in series [2], the logD at 2 h is -0.74. Moreover, the IC50 was 4.12 µM in the series on Liver and 17.9 µM in series [4].

As to `COc1cc(C2Oc3cc([C@H]4Oc5cc(O)cc(O)c5C(=O)[C@@H]4O)ccc3OC2CO)ccc1O` (mixture of isomers) [SILIBININ], the figures for the Activity in [1] and in [3] were 0.47 equiv and 0.92 equiv, respectively. The values for the IC50 (in the series with Liver; in series [4]) were 67 µM and 553 µM, respectively.

Turning to `CC[C@@]1(O)C(=O)OCc2c1cc1n(c2=O)Cc2cc3ccccc3nc2-1` [CAMPTOTHECIN], the Activity entry in the series with CAL-51, with MDA-MB-231, in the series on PC-3, in the series with BJ, in the series with HepG2 and in the series with TERT-RPE1 was “Toxic” each time. The Activity result (with MCF7; in series [5]; with K562; in the series with HL-60) was “Toxic” in each case.

On to `COc1cc(C2Oc3cc(-c4oc5cc(O)cc(O)c5c(=O)c4O)ccc3OC2CO)ccc1O` (stereo not drawn) [DEHYDROSILYLBIN], for which the Activity result was “Toxic” in the series on CAL-51; 0.56 equiv in series [1]; “Toxic” with MDA-MB-231; “Toxic” in the series on PC-3; 1.29 equiv in [3]; “Toxic” in the series on BJ. The Activity entry (in the series on HepG2; with TERT-RPE1; in the series with MCF7; in [5]; with K562; in the series on HL-60) was “Toxic” throughout. In addition, the IC50 in the series on Liver is 13 µM; in series [4], 9.32 µM.

Regarding `COc1cc([C@@H]2Oc3c(O)ccc([C@H]4Oc5cc(O)cc(O)c5C(=O)[C@@H]4O)c3[C@H]2CO)ccc1O` [ISOSILYCHRISTIN], the Activity entry in the series on CAL-51 is “Non-Toxic”; in series [1] it was 0.65 equiv; in the series with MDA-MB-231 it was “Non-Toxic”; in the series with PC-3, “Non-Toxic”; in series [3], 1.74 equiv; in the series on BJ, “Non-Toxic”. Also, the Activity entry (in the series on HepG2; in the series with TERT-RPE1; in the series on MCF7; in series [5]; in the series on K562; with HL-60) was “Non-Toxic” each time. Also, in [2], the logD at 2 h is -0.47. The IC50 in the series with Liver is 36.7 µM; in series [4] it was 53.1 µM.

For the molecule `COc1cc(C2Oc3c(O)cc([C@H]4Oc5cc(O)cc(O)c5C(=O)[C@@H]4O)cc3C2CO)ccc1O` (stereo partly drawn) [SILICRISTIN], the Activity entry is “Non-Toxic” with CAL-51; 1.09 equiv in series [1]; “Non-Toxic” in the series with MDA-MB-231; “Non-Toxic” with PC-3; 1.49 equiv in series [3]; “Non-Toxic” in the series with BJ. For the same molecule, the Activity entry (with HepG2; in the series with TERT-RPE1; with MCF7; in series [5]; in the series on K562; with HL-60) was “Non-Toxic” each time. The logD at 2 h in [2] is -0.39. Besides, the IC50 with Liver was 10.3 µM; in series [4] it was 19 µM.

For the molecule `COc1cc([C@H]2Oc3cc([C@H]4Oc5cc(O)cc(O)c5C(=O)[C@@H]4O)ccc3O[C@@H]2CO)ccc1O` [SILYBIN A], the Activity result with CAL-51, in the series on MDA-MB-231, in the series with PC-3, with BJ, with HepG2 and with TERT-RPE1 was “Toxic” in each case. Further, the Activity result (with MCF7; in [5]; with K562; in the series on HL-60) was “Toxic” throughout.

Consider `COc1cc([C@@H]2Oc3cc([C@H]4Oc5cc(O)cc(O)c5C(=O)[C@@H]4O)ccc3O[C@H]2CO)ccc1O` [SILYBIN B], for which the Activity entry with CAL-51, with MDA-MB-231, in the series with PC-3, in the series with BJ, in the series with HepG2 and in the series on TERT-RPE1 was “Toxic” in each case. In addition, the Activity result (with MCF7; in series [5]; in the series on K562; in the series on HL-60) was “Toxic” throughout.
